Experimental data published in ChEMBL document CHEMBL3232961, “Synthesis and evaluation of cyclohexane carboxylic acid head group containing isoxazole and thiazole analogs as DGAT1 inhibitors” (Eur J Med Chem, 2014).

How the values were obtained:
Mus musculus = experiment: Reduction of plasma triglyceride AUC (0 to 4 hrs) in fasted Swiss mouse at 3 mg/kg, po administered 1 hr followed by bolus dose of olive oil by acute fat tolerance test relative to vehicle-treated control; format: functional; parameters: scale not given: the % may be the effect or the level left
[1] = target: T1, Diacylglycerol O-acyltransferase 1 (Homo sapiens, UniProt O75907); experiment: Inhibition of human DGAT1 using 1,2-diacylglycerol/[14C]-oleoyl CoA as substrate assessed as [14C]-triglyceride formation after 10 mins by scintillation counting analysis
T1 sequence (O75907 whole entry): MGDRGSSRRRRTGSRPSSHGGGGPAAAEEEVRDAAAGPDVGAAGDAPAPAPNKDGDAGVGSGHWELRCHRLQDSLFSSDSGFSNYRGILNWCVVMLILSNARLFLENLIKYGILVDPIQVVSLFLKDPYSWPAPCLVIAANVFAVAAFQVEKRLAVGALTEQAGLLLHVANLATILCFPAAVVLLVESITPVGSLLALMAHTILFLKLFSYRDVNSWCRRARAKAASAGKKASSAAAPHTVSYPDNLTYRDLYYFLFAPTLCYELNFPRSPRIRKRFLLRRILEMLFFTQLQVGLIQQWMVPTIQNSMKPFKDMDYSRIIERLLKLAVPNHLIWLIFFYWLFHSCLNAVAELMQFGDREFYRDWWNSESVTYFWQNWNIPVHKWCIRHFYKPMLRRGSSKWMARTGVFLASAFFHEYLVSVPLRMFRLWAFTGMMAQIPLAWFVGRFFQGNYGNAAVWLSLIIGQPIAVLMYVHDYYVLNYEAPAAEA

Row | SMILES | Activity (Mus musculus) | IC50 [1]
1 | O=C(Nc1ccc(C2CCN(C(=O)[C@H]3CC[C@H](C(=O)O)CC3)CC2)cc1)c1nc(-c2ccccc2)oc1C(F)(F)F | 89% | 0.114 µM
2 | O=C(Nc1ccc(-c2cnc(C(=O)N[C@H]3CC[C@H](C(=O)O)CC3)s2)cc1)Nc1ccccc1F | 112% | –
